This is an account of results in US20240261283A1, “PHARMACEUTICAL PREPARATION FOR PREVENTING OR TREATING PULMONARY FIBROSIS” (J2H BIOTECH INC., priority 2021, published 2024).

In assay [1] the test system is pulmonary fibrosis mouse model induced by radiation. Description: Radiation-induced pulmonary fibrosis mouse model, collagen deposition by Masson's trichrome staining of lung tissue. It is filed as in vivo, C57BL/6 mice. Particulars: radiation 90 Gy to chest; oral, twice a day, 14 days; nintedanib 30 mg/kg (G2), Chemical Formula 1 compound 10 mg/kg (G3), combination 10 + 30 mg/kg (G4); compared to vehicle group (G1). The protocol:
The test compound was administered orally to C57BL/6 male 8-week-old mice, and 1 hour later, radiation (90 Gy, 4 mm collimator) was irradiated to the chest at a size of 3 mm. Afterwards, test compounds were administered orally twice a day for 14 days, and then an autopsy was performed. Mouse lung tissue was fixed with 10% formalin, paraffin sections were made, and the degree of collagen deposition within the tissue was confirmed using trichrome staining.
According to Reference Example 1, test compounds were administered to a mouse model of radiation-induced pulmonary fibrosis and an autopsy was performed. Mouse lung tissue was fixed in 10% neutral formalin for one day and paraffin sections were made. To remove paraffin around the tissue, it was sequentially reacted in xylene, 95, 90, and 70% ethanol solutions for 5 minutes each. To activate the tissue antigen, the tissue was immersed in a 0.1 M citric acid (pH 6.0) solution and boiled for 20 minutes. Then, it was sequentially reacted with Bouin's solution for 1 minute, Weigert's hematoxylin for 10 minutes, Phosphotunstic/phosphomolydic acid for 10 minutes, aniline blue for 5 minutes, and 1% acetic acid for 1 minute. Next, after a dehydration process, it was sealed with a cover glass and observed under a microscope (Carl Zeiss Vision).

In assay [2] the test system is bleomycin-induced pulmonary fibrosis mouse model. Kind of assay: Bleomycin-induced pulmonary fibrosis mouse model, hydroxyproline in lung tissue lysate by ELISA. The class given is in vivo, C57BL/6N mice. Conditions: oral, twice a day, 14 days. The protocol:
C57BL/6N mice were anesthetized using isoflurane. Afterwards, an incision was made in the center of the neck to expose the airway. Bleomycin dissolved in physiological saline injection solution was slowly injected at 1.25 mg/kg into the exposed upper respiratory tract using an insulin syringe. Afterwards, the insulin syringe was removed and the incision was sutured. Afterwards, test compounds were administered orally twice a day for 14 days, and then an autopsy was performed. The mouse's left lung tissue was fixed with 10% formalin, paraffin sections were made, and the degree of lung fibrosis was evaluated using H&E staining. The right lung was tissue lysed for qPCR and hydroxyproline measurements. Afterwards, it was used in each experiment to evaluate the expression of lung fibrosis-related genes and the degree of collagen deposition in the lung.
According to Reference Example 2, test compounds were administered to a mouse model of bleomycin-induced pulmonary fibrosis and an autopsy was performed. The left lung tissue of the mouse was fixed in 10% neutral formalin for one day and paraffin sections were made. To remove paraffin around the tissue, it was sequentially reacted in xylene, 95, 90, and 70% ethanol solutions for 5 minutes each. […] The other half of the tissue was lysed and the lysate was analyzed using a hydroxyproline ELISA kit.
In general terms: An ELISA detects its analyte on a solid surface through an enzyme-linked reagent.

With `C[C@@H]1CN(c2ccc(S(C)(=O)=O)cc2F)CCN1c1nccc(C(=O)N[C@H]2C3CC4CC2C[C@](O)(C4)C3)n1` [compound of Chemical Formula 1, 2-((R)-4-(2-fluoro-4-(methylsulfonyl)phenyl)-2-methylpiperazin-1-yl)-N-((1R,2s,3S,5S,7S)-5-hydroxyadamantan-2-yl)pyrimidine-4-carboxamide], the “anti-fibrotic effect of suppressing collagen deposition (trichrome staining, FIGS. 1 and 2)” value in assay [1] is reported as “significantly inhibits collagen deposition”. The “collagen deposition, primary evaluation index of pulmonary fibrosis (conclusion of Example 2)” value in assay [2] (bleomycin-induced model, doses as in Table 2) is “significantly inhibits collagen deposition”.
As to `COC(=O)c1ccc2c(c1)NC(=O)/C2=C(\Nc1ccc(N(C)C(=O)CN2CCN(C)CC2)cc1)c1ccccc1` [nintedanib], the “anti-fibrotic effect of suppressing collagen deposition (trichrome staining, FIGS. 1 and 2)” value in assay [1] was “high significance”. In addition, in assay [2] (bleomycin 1.25 mg/kg, Chemical Formula 1 compound 30, 100, 200 mg/kg (G3-G5), combination 60 + 30 mg/kg (G6), nintedanib 60 mg/kg (G7), compared to vehicle group (G2)), the “expression of hydroxyproline in lung tissue (FIG. 5)” value is listed as “significant differences were confirmed in all administration groups except the nintedanib single administration group (G7)”.
